Common to all, as to format: cell-based
The target in one assay is T1, human TLR7 (Homo sapiens, UniProt Q9NYK1).
T1 construct: host or cells: HEK-Blue cells
T1 sequence (Q9NYK1 27-1049): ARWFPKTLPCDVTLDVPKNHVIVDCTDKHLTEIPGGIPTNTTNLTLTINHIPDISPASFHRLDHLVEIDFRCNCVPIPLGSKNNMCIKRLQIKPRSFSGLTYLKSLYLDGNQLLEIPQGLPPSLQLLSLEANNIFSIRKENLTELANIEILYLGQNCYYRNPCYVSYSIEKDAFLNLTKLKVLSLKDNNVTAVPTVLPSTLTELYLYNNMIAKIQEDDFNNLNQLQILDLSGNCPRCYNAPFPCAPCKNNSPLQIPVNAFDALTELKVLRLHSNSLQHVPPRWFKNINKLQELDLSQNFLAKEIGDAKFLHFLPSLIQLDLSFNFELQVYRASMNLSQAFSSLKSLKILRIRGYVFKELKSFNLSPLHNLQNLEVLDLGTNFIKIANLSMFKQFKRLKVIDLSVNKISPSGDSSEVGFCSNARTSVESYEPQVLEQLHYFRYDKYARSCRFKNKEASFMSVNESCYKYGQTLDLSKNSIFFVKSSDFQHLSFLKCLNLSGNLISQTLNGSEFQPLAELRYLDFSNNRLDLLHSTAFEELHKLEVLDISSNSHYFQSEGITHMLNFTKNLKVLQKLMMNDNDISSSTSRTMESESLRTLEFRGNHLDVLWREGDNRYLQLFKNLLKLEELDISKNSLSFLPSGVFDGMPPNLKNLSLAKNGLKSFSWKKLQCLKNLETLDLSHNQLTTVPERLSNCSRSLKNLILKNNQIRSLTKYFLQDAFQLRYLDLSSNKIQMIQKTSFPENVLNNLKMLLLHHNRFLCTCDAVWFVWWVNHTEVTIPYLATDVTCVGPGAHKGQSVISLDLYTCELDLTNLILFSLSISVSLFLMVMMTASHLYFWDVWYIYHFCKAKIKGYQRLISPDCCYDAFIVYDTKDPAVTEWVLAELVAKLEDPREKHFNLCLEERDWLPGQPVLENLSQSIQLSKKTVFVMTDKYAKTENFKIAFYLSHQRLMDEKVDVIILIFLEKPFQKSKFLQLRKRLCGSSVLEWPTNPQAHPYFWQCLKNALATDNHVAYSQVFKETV
Nature of the assay: TLR7 inhibition reporter assay (HEK-Blue cells, SEAP reporter, gardiquimod stimulation). The note with it: HEK-Blue cells overexpressing human TLR7, SEAP reporter, gardiquimod 7.5 μM. Put shortly:
(§1)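 Percent inhibition of agonist-induced SEAP, set between agonist+DMSO wells and known-inhibitor wells, after 22 h at 37° C. Compounds (0.05 nM-50 μM final) were added 30 min at room temperature before ligand: gardiquimod 7.5 μM for TLR7, R848 15.9 μM for TLR8, ODN2006 5 nM for TLR9. Human receptors overexpressed in HEK-Blue reporter cells.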

The next assay addresses T2, human TLR8 (Homo sapiens, UniProt Q9NR97).
T2 construct: host or cells: HEK-Blue cells
T2 sequence (Q9NR97 27-1041): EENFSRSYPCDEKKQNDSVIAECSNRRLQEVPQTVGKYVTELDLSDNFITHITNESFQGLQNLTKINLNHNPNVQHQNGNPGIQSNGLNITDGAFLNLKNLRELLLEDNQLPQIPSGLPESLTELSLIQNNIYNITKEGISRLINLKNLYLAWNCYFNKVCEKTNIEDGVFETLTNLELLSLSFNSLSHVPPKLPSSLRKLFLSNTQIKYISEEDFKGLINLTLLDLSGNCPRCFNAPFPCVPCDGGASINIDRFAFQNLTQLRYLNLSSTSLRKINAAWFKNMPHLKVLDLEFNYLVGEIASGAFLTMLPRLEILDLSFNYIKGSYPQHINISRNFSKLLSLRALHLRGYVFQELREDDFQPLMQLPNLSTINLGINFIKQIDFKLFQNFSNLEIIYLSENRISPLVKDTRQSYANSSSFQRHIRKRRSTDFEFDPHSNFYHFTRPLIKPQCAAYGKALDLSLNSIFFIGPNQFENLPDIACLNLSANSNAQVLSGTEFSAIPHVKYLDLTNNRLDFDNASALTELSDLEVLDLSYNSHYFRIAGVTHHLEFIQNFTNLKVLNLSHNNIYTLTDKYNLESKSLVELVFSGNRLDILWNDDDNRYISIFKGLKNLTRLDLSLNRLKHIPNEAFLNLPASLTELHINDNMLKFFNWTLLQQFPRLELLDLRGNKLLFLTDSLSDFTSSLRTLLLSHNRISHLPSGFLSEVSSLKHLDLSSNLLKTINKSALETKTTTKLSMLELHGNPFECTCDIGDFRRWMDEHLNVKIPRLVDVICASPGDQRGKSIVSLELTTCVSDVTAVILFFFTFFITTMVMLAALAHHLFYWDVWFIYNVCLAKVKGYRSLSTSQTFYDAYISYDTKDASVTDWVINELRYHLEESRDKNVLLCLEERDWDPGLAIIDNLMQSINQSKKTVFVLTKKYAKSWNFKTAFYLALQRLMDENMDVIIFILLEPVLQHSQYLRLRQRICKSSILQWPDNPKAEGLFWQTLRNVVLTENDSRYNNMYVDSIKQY
Put plainly: TLR8 inhibition reporter assay (HEK-Blue cells, SEAP reporter, R848 stimulation). The conditions noted are these: HEK-Blue cells overexpressing human TLR8, SEAP reporter, R848 15.9 μM. Put shortly: as §1

Another assay deals with T3, human TLR9 (Homo sapiens, UniProt Q9NR96).
T3 construct: host or cells: HEK-Blue cells
T3 sequence (Q9NR96 26-1032): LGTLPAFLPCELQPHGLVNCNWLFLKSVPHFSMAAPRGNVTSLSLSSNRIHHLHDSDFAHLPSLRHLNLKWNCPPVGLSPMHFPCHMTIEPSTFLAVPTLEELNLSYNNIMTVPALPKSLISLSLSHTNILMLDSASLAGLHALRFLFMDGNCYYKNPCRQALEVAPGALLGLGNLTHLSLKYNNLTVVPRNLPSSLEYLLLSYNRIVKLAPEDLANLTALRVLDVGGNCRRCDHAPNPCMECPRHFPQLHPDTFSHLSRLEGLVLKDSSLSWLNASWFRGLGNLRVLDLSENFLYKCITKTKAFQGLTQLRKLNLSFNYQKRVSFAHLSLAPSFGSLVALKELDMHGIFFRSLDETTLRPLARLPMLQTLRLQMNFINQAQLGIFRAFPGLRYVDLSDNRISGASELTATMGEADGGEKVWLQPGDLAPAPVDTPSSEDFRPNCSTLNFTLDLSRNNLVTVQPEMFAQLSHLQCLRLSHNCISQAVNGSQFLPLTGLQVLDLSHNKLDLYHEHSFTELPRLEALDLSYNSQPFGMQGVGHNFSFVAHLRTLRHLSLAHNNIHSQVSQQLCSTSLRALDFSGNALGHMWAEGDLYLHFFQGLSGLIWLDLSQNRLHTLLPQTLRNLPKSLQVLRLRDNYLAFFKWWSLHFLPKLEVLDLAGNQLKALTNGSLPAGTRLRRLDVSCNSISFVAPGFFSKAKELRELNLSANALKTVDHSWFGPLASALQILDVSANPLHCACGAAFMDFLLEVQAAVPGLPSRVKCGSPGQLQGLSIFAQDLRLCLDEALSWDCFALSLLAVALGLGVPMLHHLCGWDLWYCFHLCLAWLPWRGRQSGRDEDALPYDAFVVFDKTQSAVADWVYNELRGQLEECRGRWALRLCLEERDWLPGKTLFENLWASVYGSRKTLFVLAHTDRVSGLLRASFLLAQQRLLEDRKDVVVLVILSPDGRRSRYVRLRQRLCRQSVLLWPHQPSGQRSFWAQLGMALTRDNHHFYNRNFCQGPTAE
Nature of the assay: TLR9 inhibition reporter assay (HEK-Blue cells, SEAP reporter, ODN2006 stimulation). The conditions noted are these: HEK-Blue cells overexpressing human TLR9, SEAP reporter, ODN2006 5 nM. Put shortly:
as §1

Consider `Cc1cc(-c2c(C(C)C)c(C(=O)NC3CCN(C(C)C)CC3)nn2C)cn2ncnc12` [Example 188, 4-isopropyl-N-(1-isopropylpiperidin-4-yl)-1-methyl-5-(8-methyl-[1,2,4]triazolo[1,5-a]pyridin-6-yl)-1H-pyrazole-3-carboxamide], for which the IC50 at human TLR7 came to 0.71 nM; against human TLR8, 0.58 nM; against human TLR9, 10800 nM.
The matching figures for `Cc1cc(-c2[nH]nc(C3CCC(NC4CCN(C(C)C)CC4)CC3)c2C(C)C)cn2ncnc12` (single isomer, unassigned) [Example 288]: 15.2 nM, 0.52 nM and 14200 nM.
The matching figures for `Cc1cc(-c2[nH]nc(C(=O)N(C)C3CCN(C)C3)c2C(C)C)cn2ncnc12` (stereo not drawn) [Example 25]: 25.6 nM, 10.3 nM and 447 nM.
The matching figures for `Cc1cc(-c2[nH]nc(C3CCC(NC4CCN(C(C)C)CC4)CC3)c2C(C)C)cn2ncnc12` (single isomer, unassigned) [Example 289]: 5.19 nM, 0.97 nM and 19700 nM.
With `CNC1CCC(c2n[nH]c(-c3cc(C)c4ncnn4c3)c2C(C)C)CC1` (single isomer, unassigned) [Example 294], the half-maximal inhibitory concentration (IC50) on human TLR7 was found to be 7.97 nM; on human TLR8, 0.42 nM; against human TLR9 it was 8990 nM.
Regarding `Cc1cc(-c2[nH]nc(C(=O)NC3CCNCC3)c2C(C)C)cn2ncnc12` [Example 43, 4-isopropyl-5-(8-methyl-[1,2,4]triazolo[1,5-a]pyridin-6-yl)-N-(piperidin-4-yl)-1H-pyrazole-3-carboxamide], the IC50 is 2.54 nM at human TLR7, 5.22 nM on human TLR8 and greater than 50000 nM against human TLR9.
As for `COc1cc(-c2[nH]nc(-c3ccc(C4CN(CC(C)(C)O)C4)cc3)c2C(C)C)cn2ncnc12` [Example 337], the IC50 against human TLR7 amounted to 8.27 nM; against human TLR8, 7.61 nM; against human TLR9, 42400 nM.
As for `Cc1cc(-c2[nH]nc(C(=O)NC3CCN(C(C)C)CC3)c2C(C)C)cc(C)n1` [Example 36], the IC50 on human TLR7 came to 1300 nM; against human TLR8 it was 1540 nM; at human TLR9, 25200 nM.
Turning to `CC(C)c1c(C(=O)NC2CCN(C(C)C)CC2)n[nH]c1-c1ccc(C#N)c2ncccc12` [Example 40], the IC50 at human TLR7 was determined as 29.9 nM; at human TLR8, 31.1 nM; at human TLR9, 18900 nM.
Regarding `Cc1cc(-c2[nH]nc(C(=O)N[C@H]3CC[C@H](N(CCC(C)C)CCC(C)C)CC3)c2C(C)C)cn2ncnc12` [Example 108], the IC50 against human TLR7 was 1.34 nM; on human TLR8 it was 4.49 nM; against human TLR9, 5700 nM.
On to `Cc1cc(-c2[nH]nc(C(=O)N[C@H]3CC[C@@H](NC(C)C(C)C)CC3)c2C(C)C)cn2ncnc12` (stereo partly drawn) [Example 99], for which the IC50 at human TLR7 worked out at 1.19 nM; against human TLR8, 36.7 nM; against human TLR9, 3610 nM.
The matching figures for `Cc1ncc(CN[C@H]2CC[C@H](NC(=O)c3n[nH]c(-c4cc(C)c5ncnn5c4)c3C(C)C)CC2)cn1` [Example 104]: 1.98 nM, 2.81 nM and 5600 nM.
For `COc1cc(-c2[nH]nc(-c3nc4c(s3)CN(C)CC4)c2C(C)C)cn2ncnc12` [Example 262] the same measures were 23.8 nM, 17.5 nM and 18300 nM.
On to `Cc1cc(-c2[nH]nc(-c3ccc(N)nc3)c2C(C)C)cn2ncnc12` [Example 227], for which the IC50 against human TLR7 was found to be 4.43 nM; against human TLR8, 11.4 nM; on human TLR9 it was 18200 nM.
The matching figures for `Cc1cc(-c2[nH]nc(C(=O)NC3CCN(CC4CCOCC4)CC3)c2CC(F)(F)F)cn2ncnc12` [Example 204]: 1.5 nM, 0.63 nM and 17800 nM.
The matching figures for `Cc1cc(-c2[nH]nc(C(=O)N[C@H]3CC[C@@H](NC4CCOCC4)CC3)c2C(C)C)cn2ncnc12` [Example 98]: 0.12 nM, 1.37 nM and 2980 nM.
For the molecule `Cc1cc(-c2[nH]nc(C(=O)N[C@H]3CC[C@@H](NC(C)C(C)(C)C)CC3)c2C(C)C)cn2ncnc12` (stereo partly drawn) [Example 150], the IC50 against human TLR7 was determined as 0.57 nM; against human TLR8 it was 0.39 nM; against human TLR9, 2830 nM.
The matching figures for `Cc1cc(-c2[nH]nc(C(=O)NC3CCN(CC(=O)N(C)C)CC3)c2C(C)C)cn2ncnc12` [Example 176, N-(1-(2-(dimethylamino)-2-oxoethyl)piperidin-4-yl)-4-isopropyl-5-(8-methyl-[1,2,4]triazolo [1,5-a]pyridin-6-yl)-1H-pyrazole-3-carboxamide]: 23.3 nM, 23.7 nM and 9580 nM.
For `COc1cc(-c2[nH]nc(-c3ccc(C4CCN(CC(N)=O)CC4)cn3)c2C(C)C)cn2ncnc12` [Example 393] the same measures were 77.6 nM, 140 nM and greater than 50000 nM.

(Values after US20230117470A1, “SUBSTITUTED PYRAZOLE COMPOUNDS AS TOLL RECEPTOR INHIBITORS” (BRISTOL-MYERS SQUIBB COMPANY, priority 2019, published 2023).)
